Measurements: patent US6218438A, “Copolymer compositions for treating viral infections” (Supratek Pharma, Inc., priority 1999, dated 2001)

Columns and labels:
[1] = target: T1, HIV-1 reverse transcriptase (p51/p66 RT), RNAse H activity (Human immunodeficiency virus type 1 group M subtype B, UniProt P03366); assay: Inhibition of RNAse H activity of RT; format: biochemical
T1 construct: 10 ng of p51/p66 heterodimeric RT per assay were used
Experimental: (§1) BBNH and Fe(III)-BBNH complex at various concentrations were examined for the ability to inhibit RNA dependent and DNA dependent DNA polymerase activities as well as RNAse H activity of HIV-1 reverse transcriptase (RT RDDP, RT DDDP, and RT RNAse H, respectively). To analyze RT RDDP and RT DDDP the following reaction mixture (100 μl total volume) was used: 50 mM Tris-HCl (pH 7.8), 60 mM KCl, 10 mM MgCl2, 10 ng of p51/p66 RT, 0.1-0.5 units of template/primer, and 0.5-25 μM [^3 H]dNTP. Aliquots of the test compounds dissolved in DMSO were added to the reaction mixtures, incubated for 10-20 min. at 37° C. and than quenched with 500 μl of cold 20 mM sodium pyrophosphate in 10% dichloroacetic acid. After 10 min. on ice, the samples were filtered on Whatman 934-AH glass fiber filters and washed with 10% dichloroacetic acid and ethanol, and the radioactivity was determined by liquid scintillation analysis. To analyze RT RNAse H the following reaction mixture (50 μl total volume) was used: 5OmM Tris-HCl (pH 8.0), 60 mM KCl, 8 mM MgCl2, and variable amounts of ([^3 H]rG)-poly(dC). Generally, 10 ng of p51/p66 heterodimeric RT per assay were used. Aliquots of the test compounds dissolved in DMSO were added to the reaction mixtures, incubated for 20 min. at 37° C. and than quenched by placing the tubes on ice followed by the addition of 100 μl of cold 7% perchloric acid. After 10 min. on ice, the samples were centrifuged at 12,000 g for 15 min. 100 μl of the supernatants were carefully removed, and the radioactivity was determined by liquid scintillation analysis.

[2] = test system: HIV-1 replication in cells; assay: Inhibition of HIV-1 replication in infected cells (general statement); format: cell-based
cells = assay: Cytotoxicity (general statement); format: cell-based
[3] = Water solubility of Fe(III)BBNH in various Pluronic solutions; format: physicochemical; conditions: 180 min
Experimental: The samples of Fe(III)BBNH (1 mg of each) were placed in 1 ml of various water solutions of Pluronics. The samples were intensively agitated during three hours at room temperature using a rotator. The samples were then centrifuged at 10,000g for 10 min. The supernatants (500 μl each) were separated and then dried using a speed-vac centrifuge. Each sample was dissolved in 500 μl DMSO and aliquots (50 μl each) were transferred to 96-well plate. The optical densities were determined at λ400 nm using a microplate. The test compound concentrations in the samples were then determined by using the calibration shown in Example 4A. Each concentration of Fe(III)BBNH was analyzed in triplicates. Each concentration of Fe306 was measured in triplicates.

HIV-1 RT = HIV-1 RT (Human immunodeficiency virus type 1 BH10, UniProt P03366); assay: In vitro inhibition of HIV-1 RT enzymatic activities (RDDP, RNase H, DDDP); format: biochemical
MT2 cells = assay: Cytotoxic activity against uninfected MT2 cells (XTT assay); format: cell-based, human; conditions: 4 days at 37° C., in DMSO
Experimental: BBNH and Fe(III)-BBNH complex at various concentrations were examined for cytotoxic activity against uninfected MT2 cells. Aliquots of a solution of the compounds in dimethyl sulfoxide were added to the MT2 cells (2×10^5 cells/ml) in RPMI medium containing 10% fetal bovine serum to provide defined final concentrations of test compound. The cells and test compounds were cultured for 4 days at 37° C., in the presence of 5% CO2 and then cytotoxic effect of the compounds was analyzed by using the standard XTT assay. The CC50 calculated from the results were 10±0.5 μM for BBNH and more than 1000 μM for Fe(III)-BBNH.

[4] = target: T2, HIV-1 reverse transcriptase (p51/p66 RT), RDDP activity (Human immunodeficiency virus type 1 group M subtype B, UniProt P03366); assay: Inhibition of RNA dependent DNA polymerase activity of RT (RT RDDP); format: biochemical
T2 construct: 10 ng of p51/p66 heterodimeric RT per assay were used
Experimental: as §1

[5] = target: T3, HIV-1 reverse transcriptase (p51/p66 RT), DDDP activity (Human immunodeficiency virus type 1 group M subtype B, UniProt P03366); assay: Inhibition of DNA dependent DNA polymerase activity of RT (RT DDDP); format: biochemical
T3 construct: 10 ng of p51/p66 heterodimeric RT per assay were used
Experimental: as §1

Structure (SMILES): CC(C)(C)c1ccc(C(=O)NN=Cc2c(O)ccc3ccccc23)cc1.C[O-].[Cl-].[Cl-].[Fe+3] [Fe(III)-BBNH]
- IC50 ([1]; 10 min. preincubation): 0.5 ± 0.07 µM
- Ratio BBNH/Fe(III)-BBNH (IC50), RT RNase H ([1]; 10 min. preincubation): 7
- IC50 ([1]; No preincubation): 0.9 ± 0.5 µM
- Ratio BBNH/Fe(III)-BBNH (IC50), RT RNase H ([1]; No preincubation): > 50
- antiviral activity against HIV-1 replication in cells [2]: no antiviral activity against HIV-1 replication in cells
- inhibition of HIV-1 replication in cells, water-organic formulations ([2]; water-organic formulations): very low activity
- cytotoxicity (cells): virtually no cytotoxicity
- Solubility of Fe(III)BBNH ([3]; Pluronic F87 (2% w/v) in water): 992.5 µg/mL
- Solubility of Fe(III)BBNH ([3]; Pluronic F108 (2% w/v) in water): 86.5 µg/mL
- Solubility of Fe(III)BBNH ([3]; Pluronic F127 (2% w/v) in water): 113.6 µg/mL
- Solubility of Fe(III)BBNH ([3]; Pluronic L44 (2% w/v) in water): 986.8 µg/mL
- Solubility of Fe(III)BBNH ([3]; Pluronic L61 (1% w/v) in water): 3.5 µg/mL
- Solubility of Fe(III)BBNH ([3]; Pluronic L64 (2% w/v) in water): 996.6 µg/mL
- Solubility of Fe(III)BBNH ([3]; Pluronic L81 (2% w/v) in water): 175.3 µg/mL
- Solubility of Fe(III)BBNH ([3]; Pluronic P84 (1% w/v) in water): 987.2 µg/mL
- Solubility of Fe(III)BBNH ([3]; Pluronic P85 (1% w/v) in water): 998.3 µg/mL
- Solubility of Fe(III)BBNH ([3]; Pluronic P123 (2% w/v) in water): 125.7 µg/mL
- inhibitory activity against RT in vitro compared to the parent uncomplexed BBNH (HIV-1 RT): improved inhibitory activity compared to the parent uncomplexed BBNH
- CC50 (MT2 cells): > 1000 µM
- IC50 [4]: 0.4 ± 0.08 µM
- Ratio BBNH/Fe(III)-BBNH (IC50), RT RDDP [4]: 4.8
- IC50 [5]: 0.9 ± 0.3 µM
- Ratio BBNH/Fe(III)-BBNH (IC50), RT DDDP [5]: 13.5
